Results taken from US20180057505A1, “BICYCLIC HETEROARYL COMPOUNDS USEFUL AS INHIBITORS OF THE PAR-2 SIGNALING PATHWAY” (VERTEX PHARMACEUTICALS INCORPORATED, priority 2015, published 2018).

Assays:
Type in all cases: cell-based
[1] = test system: Thrombin-stimulated Ca2+ response in HT-29 cells; assay: Ca FLIPR TETRA assay, ANTAGONIST mode, activator 1 U/mL Thrombin; settings: HT-29 cells, activator 1 U/mL Thrombin
Procedure, shortened: (§1)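 HT-29 cells plated overnight at 37 °C in 1% FBS/McCoy's, loaded with calcium 5 dye (45 min 37 °C, 15 min r.t.), then preincubated with compounds 30 min at r.t. before a fixed activator challenge. Intracellular Ca2+ read by FLIPR Tetra; a first read checks compound-alone activation.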

[2] = test system: UTP-stimulated Ca2+ response in HT-29 cells; assay: Ca FLIPR TETRA assay, ANTAGONIST mode, activator 0.6 μM UTP; settings: HT-29 cells, activator 0.6 μM UTP
Procedure, shortened: as §1

PAR2 (HT-29 cells) [3] = target: T1, PAR2 (HT-29 cells) (Homo sapiens, UniProt P55085); assay: Ca FLIPR TETRA assay, ANTAGONIST mode, activator 3.1 U/mL trypsin; settings: HT-29 cells; activator 3.1 U/mL trypsin; Method A: maximal concentration of antagonist 0.1, 1 or 2 μM
T1 construct: host or cells: HT-29
T1 sequence (P55085 26-397): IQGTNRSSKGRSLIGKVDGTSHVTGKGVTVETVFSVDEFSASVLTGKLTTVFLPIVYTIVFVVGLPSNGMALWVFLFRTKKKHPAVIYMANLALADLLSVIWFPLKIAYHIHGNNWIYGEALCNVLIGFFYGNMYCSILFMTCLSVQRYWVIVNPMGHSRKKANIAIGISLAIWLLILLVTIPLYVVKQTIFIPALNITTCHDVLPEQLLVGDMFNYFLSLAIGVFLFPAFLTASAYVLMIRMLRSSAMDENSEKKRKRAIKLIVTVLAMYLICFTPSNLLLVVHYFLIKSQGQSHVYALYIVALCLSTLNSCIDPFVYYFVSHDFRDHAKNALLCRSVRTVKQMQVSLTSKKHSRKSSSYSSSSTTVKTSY
Procedure, shortened: as §1

PAR2 (HT-29 cells) [4] = target: T1, PAR2 (HT-29 cells); assay: Ca FLIPR TETRA assay, ANTAGONIST mode, activator 8 μM SLIGKV; settings: HT-29 cells; activator 8 μM SLIGKV; Method A: maximal concentration of antagonist 0.1, 1 or 2 μM
Procedure, shortened: as §1

Structure (SMILES)	IC50 ([1]; Homo sapiens)	IC50 ([2]; Homo sapiens)	IC50 (PAR2 (HT-29 cells) [3])	IC50 (PAR2 (HT-29 cells) [4])	IC50 [1]	IC50 [2]
CC1(C)CCC(c2cc(C(C)(C)C)c3oc(C(=O)N4CCC(=O)NCC4(C)C)cc3n2)CC1 [Example I-489]	> 2 µM	> 2 µM	0.27 µM	0.115 µM	–	–
CC(C)(C)c1cc(-c2ccc(Cl)c(F)c2)nc2cc(C(=O)N3CCN(c4cc(C(=O)O)ncn4)CC3(C)C)oc12 [Example I-490]	> 2 µM	> 2 µM	0.0039 µM	0.0031 µM	–	–
CC(C)(C)c1cc(-c2ccc(Cl)c(F)c2)nc2cc(C(=O)N3CCN(c4ccncc4C(=O)O)CC3(C)C)oc12 [Example I-491]	> 2 µM	> 2 µM	0.23 µM	0.19 µM	–	–
Cc1cnc(N2CCN(C(=O)c3cc4nc(-c5ccc(Cl)c(F)c5)cc(C(C)(C)C)c4o3)C(C)(C)C2)c(C(=O)O)c1 [Example I-492]	> 2 µM	> 2 µM	0.0073 µM	0.0075 µM	–	–
CC(C)(C)c1cc(-c2ccc(Cl)cc2)nc2cc(C(=O)N3CCN(C(=O)CC4(C(=O)O)CCCC4)CC3(C)C)oc12 [Example I-493]	> 2 µM	> 2 µM	0.0004 µM	0.0004 µM	–	–
Cc1cc(C(=O)O)nc(N2CCN(C(=O)c3cc4nc(-c5ccc(Cl)c(F)c5)cc(C(C)(C)C)c4o3)C(C)(C)C2)c1 [Example I-494]	> 2 µM	> 2 µM	0.0001 µM	> 2 µM	–	–
Cc1ccc(N2CCN(C(=O)c3cc4nc(-c5ccc(Cl)cc5)cc(C(C)(C)C)c4o3)C(C)(C)C2=O)nc1C(=O)O [Example I-495]	> 2 µM	> 2 µM	0.015 µM	0.013 µM	–	–
Cc1nc(N2CCN(C(=O)c3cc4nc(C5CCC(C)(C)CC5)cc(C(C)(C)C)c4o3)C(C)(C)C2)ccc1C(=O)O [Example I-496]	> 2 µM	> 2 µM	0.0006 µM	0.0004 µM	–	–
CC(C)(C)c1cc(-c2ccc(Cl)c(F)c2)nc2cc(C(=O)N3CCN(C(=O)CC4(C(=O)O)CCOCC4)CC3(C)C)oc12 [Example I-497]	> 2 µM	> 2 µM	0.0022 µM	0.0022 µM	–	–
COc1nc(N2CCN(C(=O)c3cc4nc(-c5ccc(Cl)c(F)c5)cc(C(C)(C)C)c4o3)C(C)(C)C2)ccc1C(=O)O [Example I-498]	> 2 µM	> 2 µM	0.0003 µM	0.0003 µM	–	–
CC(C)(C)c1cc(-c2ccc(Cl)cc2)nc2cc(C(=O)N3CCN(C(=O)CC4(C(=O)O)CCOCC4)CC3(C)C)oc12 [Example I-499]	> 2 µM	> 2 µM	0.005 µM	0.0036 µM	–	–
CC(C)(C)c1cc(-c2ccc(Cl)c(F)c2)nc2cc(C(=O)N3CCN(C(=O)[C@@H]4CCCC[C@@H]4C(=O)O)CC3(C)C)oc12 [Example I-500]	> 2 µM	> 2 µM	0.0005 µM	0.0004 µM	–	–
CC(C)(C)c1cc(-c2ccc(Cl)c(F)c2)nc2cc(C(=O)N3CCN(c4nc(C(=O)O)ccc4F)CC3(C)C)oc12 [Example I-501]	–	–	0.0001 µM	0.0001 µM	> 2 µM	> 2 µM
CC(C)(C)c1cc(-c2ccc(Cl)cc2)nc2cc(C(=O)N3CCN(c4nc(C(=O)O)ccc4F)CC3(C)C)oc12 [Example I-502]	–	–	0.0002 µM	0.0002 µM	> 2 µM	> 2 µM
CC1(C)CCC(c2cc(C(C)(C)C)c3oc(C(=O)N4CCN(c5nc(C(=O)O)ccc5F)CC4(C)C)cc3n2)CC1 [Example I-503]	–	–	0.0003 µM	0.0002 µM	> 2 µM	> 2 µM
Cc1cc(C(=O)N2CCN(C(=O)c3cc4nc(-c5ccc(Cl)c(F)c5)cc(C(C)(C)C)c4o3)C(C)(C)C2)[nH]n1 [Example I-504]	> 2 µM	> 2 µM	0.0017 µM	0.0012 µM	–	–
Cn1cnnc1N1CCN(C(=O)c2cc3nc(-c4ccc(Cl)cc4)cc(C(C)(C)C)c3o2)C(C)(C)C1 [Example I-505]	> 2 µM	> 2 µM	0.0096 µM	0.014 µM	–	–
CC(C)(C)c1cc(-c2ccc(Cl)c(F)c2)nc2cc(C(=O)N3CCN(C(=O)[C@@H]4CCCC[C@H]4C(=O)O)CC3(C)C)oc12 [Example I-506]	> 2 µM	> 2 µM	0.021 µM	0.023 µM	–	–

Structure (SMILES)	IC50 ([1]; Homo sapiens)	IC50 ([2]; Homo sapiens)	IC50 (PAR2 (HT-29 cells) [3])	IC50 (PAR2 (HT-29 cells) [4])	IC50 [1]	IC50 [2]
CC(C)(C)c1cc(-c2ccc(Cl)c(F)c2)nc2cc(C(=O)N3CCN(C(=O)NS(=O)(=O)c4ccccc4)CC3(C)C)oc12 [Example I-507]	> 2 µM	> 2 µM	0.0005 µM	0.0006 µM	–	–
CC(C)(C)c1cc(-c2ccc(Cl)c(F)c2)nc2cc(C(=O)N3CCN(S(C)(=O)=O)CC3(C)C)oc12 [Example I-508]	> 2 µM	> 2 µM	0.01 µM	0.0081 µM	–	–
CC1(C)CCC(c2cc(C(C)(C)C)c3oc(C(=O)N4CCN(C(=O)[C@H]5CC[C@@](C)(C(=O)OCOP(=O)(O)O)CC5)CC4(C)C)cc3n2)CC1 [Example I-509]	> 2 µM	> 2 µM	0.0005 µM	0.0002 µM	–	–
CC(C)(C)c1cc(-c2ccc(Cl)c(F)c2)nc2cc(C(=O)N3CCN(c4ccc(C(=O)O)c(N)n4)CC3(C)C)oc12 [Example I-510]	> 2 µM	> 2 µM	0.0008 µM	0.0003 µM	–	–
CC(C)(C)c1cc(-c2ccc(Cl)cc2)nc2cc(C(=O)N3CCN(C(=O)[C@@H]4CCCC[C@H]4C(=O)O)CC3(C)C)oc12 [Example I-511]	> 2 µM	> 2 µM	0.0495 µM	0.043 µM	–	–
CC(C)(C)c1cc(-c2ccc(Cl)c(F)c2)nc2cc(C(=O)N3CCN(C(=O)[C@@H]4CC[C@H](C(=O)O)C4)CC3(C)C)oc12 [Example I-512]	> 2 µM	> 2 µM	0.018 µM	0.019 µM	–	–
CC(C)(C)c1cc(-c2ccc(Cl)c(F)c2)nc2cc(C(=O)N3CCN(c4cc(C(F)(F)F)cnc4C(=O)O)CC3(C)C)oc12 [Example I-515]	> 2 µM	> 2 µM	0.021 µM	0.016 µM	–	–
CC(C)(C)c1cc(-c2ccc(Cl)c(F)c2)nc2cc(C(=O)N3CCN(c4nc(-c5ccccc5)ccc4C(=O)O)CC3(C)C)oc12 [Example I-516]	> 2 µM	> 2 µM	0.0027 µM	0.0018 µM	–	–
CC(C)(C)c1cc(-c2ccc(Cl)c(F)c2)nc2cc(C(=O)N3CCN(c4cc(C(=O)O)c(F)cn4)CC3(C)C)oc12 [Example I-517]	> 2 µM	> 2 µM	0.0023 µM	0.0014 µM	–	–
CC(C)(C)c1cc(-c2ccc(Cl)c(F)c2)nc2cc(C(=O)N3CCN(c4ncc(F)cc4C(=O)O)CC3(C)C)oc12 [Example I-518]	> 2 µM	> 2 µM	0.017 µM	0.01 µM	–	–
CC(C)(C)c1cc(-c2ccc(Cl)c(F)c2)nc2cc(C(=O)N3CCN(c4ncncc4C(=O)O)CC3(C)C)oc12 [Example I-519]	> 2 µM	> 2 µM	0.026 µM	0.014 µM	–	–
Cc1cnc(N2CCN(C(=O)c3cc4nc(-c5ccc(Cl)c(F)c5)cc(C(C)(C)C)c4o3)C(C)(C)C2)nc1C(=O)O [Example I-520]	> 2 µM	> 2 µM	0.0004 µM	0.0003 µM	–	–
Cc1cnc(N2CCN(C(=O)c3cc4nc(-c5ccc(Cl)cc5)cc(C(C)(C)C)c4o3)C(C)(C)C2)nc1C(=O)O [Example I-521]	> 2 µM	> 2 µM	0.0012 µM	0.0007 µM	–	–
CN1CCN(C(=O)c2cc3nc(-c4ccc(Cl)c(F)c4)cc(C(C)(C)C)c3o2)C(C)(C)CC1=O [Example I-522]	> 2 µM	> 2 µM	0.0026 µM	0.0025 µM	–	–
Cc1cc(C(=O)N2CCN(C(=O)c3cc4nc(C5CCC(C)(C)CC5)cc(C(C)(C)C)c4o3)C(C)(C)C2)[nH]n1 [Example I-523]	> 2 µM	> 2 µM	0.0019 µM	0.002 µM	–	–
Cc1ncc(N2CCN(C(=O)c3cc4nc(-c5ccc(Cl)c(F)c5)cc(C(C)(C)C)c4o3)C(C)(C)C2)nc1C(=O)O [Example I-524]	> 2 µM	> 2 µM	0.0026 µM	0.002 µM	–	–
Cc1ncc(N2CCN(C(=O)c3cc4nc(C5CCC(C)(C)CC5)cc(C(C)(C)C)c4o3)C(C)(C)C2)nc1C(=O)O [Example I-525]	–	–	0.0014 µM	0.0007 µM	1.6 µM	1.65 µM
CN1CC(C)(C)N(C(=O)c2cc3nc(-c4ccc(Cl)c(F)c4)cc(C(C)(C)C)c3o2)CCC1=O [Example I-526]	> 2 µM	> 2 µM	0.147 µM	0.24 µM	–	–
